Test results as given in PubChem BioAssay (NCI).
Values joined by “and” are separate entries in the source; they are usually repeats but may differ in a detail not shown here. Equal entries are not always repeated.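 Tested at 5 concentrations; 48 h exposure; 96-well plates; endpoints linearly interpolated, else capped at highest concentration. Here, GI50 denotes the concentration required for 50% inhibition of growth. TGI is the concentration that stops growth completely.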

Legend:
Assay in all cases: NCI anticancer screen, dose series, 48 h
HCC-2998 colon = system: HCC-2998 colon
NCI-H226 lung = system: NCI-H226 lung
NCI-H522 lung = system: NCI-H522 lung
RXF 393 renal = system: RXF 393 renal
OVCAR-4 ovarian = system: OVCAR-4 ovarian
DU-145 prostate = system: DU-145 prostate
LOX IMVI melanoma = system: LOX IMVI melanoma
CAKI-1 renal = system: CAKI-1 renal
MDA-MB-435 = system: MDA-MB-435
OVCAR-8 ovarian = system: OVCAR-8 ovarian

Compound | GI50 (HCC-2998 colon) | TGI (HCC-2998 colon) | GI50 (NCI-H226 lung) | TGI (NCI-H226 lung) | GI50 (NCI-H522 lung) | TGI (NCI-H522 lung) | GI50 (RXF 393 renal) | TGI (RXF 393 renal) | GI50 (OVCAR-4 ovarian) | TGI (OVCAR-4 ovarian) | GI50 (DU-145 prostate) | TGI (DU-145 prostate) | GI50 (LOX IMVI melanoma) | TGI (LOX IMVI melanoma) | GI50 (CAKI-1 renal) | TGI (CAKI-1 renal) | GI50 (MDA-MB-435) | TGI (MDA-MB-435) | GI50 (OVCAR-8 ovarian) | TGI (OVCAR-8 ovarian)
C[C@H](Nc1cc(Cl)nc2c1cnn2[C@@H]1O[C@H](COP(=O)(O)CP(=O)(O)O)[C@@H](O)[C@H]1O)c1ccccc1F | > 100 µM | > 100 µM | > 100 µM | > 100 µM | > 100 µM | > 100 µM | > 100 µM | > 100 µM | > 100 µM | > 100 µM | > 100 µM | > 100 µM | > 100 µM | > 100 µM | > 100 µM | > 100 µM | > 100 µM | > 100 µM | > 100 µM | > 100 µM
Cn1c(=O)c(Oc2ccc(F)cc2)cc2cnc(NC3CCOCC3)nc21 | > 25 µM | > 25 µM | > 17.1 µM | > 25 µM | > 25 µM | > 25 µM | 24.7 µM | > 25 µM | > 25 µM | > 25 µM | > 25 µM | > 25 µM | > 25 µM | > 25 µM | > 25 µM | > 25 µM | > 25 µM | > 25 µM | > 25 µM | > 25 µM
CC1CCN(C(=O)OCc2nc3nc(Cl)nc(N4CCOCC4)c3[nH]2)CC1 | 1.69 µM | 3.29 µM | 1.62 µM | 4.23 µM | 1.08 µM | 3.13 µM | 0.554 µM | 2 µM | 1.35 µM | 2.72 µM | 1.14 µM | 2.35 µM | 0.175 µM | 0.473 µM | 0.72 µM | 2.27 µM | 0.835 µM | 2.24 µM | 1.9 µM | 9.02 µM
O=[N+]([O-])c1cccc2ccc(N/N=C/c3ccccc3O)nc12 | > 100 µM | > 100 µM | > 100 µM | > 100 µM |  | > 39.6 µM | 65.8 µM | > 100 µM | > 100 µM | > 100 µM | > 23.8 µM | > 100 µM | > 100 µM | > 100 µM | > 100 µM | > 100 µM | > 100 µM | > 100 µM | > 100 µM | > 100 µM
COc1ccc(C(O)(CCC(C)C)C(CN2CCOCC2)c2ccc(Cl)cc2)cc1 (stereo not drawn) | 10.7 µM | 24 µM | 13.2 µM | 32.1 µM | 6.7 µM | 21.6 µM | 6.49 µM | 21.7 µM | 12.1 µM | 27.4 µM | 15.4 µM | 29.5 µM | 14.5 µM | 28 µM | 14 µM | 31.7 µM | 14.9 µM | 37.3 µM | 16.1 µM | 41.5 µM
O=C(CNS(=O)(=O)Cc1ccccc1)NNc1ccccc1 |  | > 100 µM |  | > 100 µM |  | > 100 µM |  | > 100 µM |  | > 100 µM |  | > 100 µM |  | > 100 µM |  | > 100 µM |  | > 100 µM |  | > 100 µM
COc1ccccc1Nc1ncc(-c2ccccc2)o1 | > 25 µM | > 25 µM | > 25 µM | > 25 µM | > 25 µM | > 25 µM | > 25 µM | > 25 µM | > 25 µM | > 25 µM | > 25 µM | > 25 µM | > 25 µM | > 25 µM | > 24 µM | > 25 µM | > 25 µM | > 25 µM | > 25 µM | > 25 µM
COc1cc(/C=C/C(=O)c2cccc(-n3cc(-c4ccc(Cl)cc4)[nH]c3=O)c2)ccc1O | 2.35 µM | 5.5 µM | 6.38 µM | 19.5 µM | 1.81 µM | 11 µM | 2.99 µM | 9.13 µM | 3.11 µM | > 23.7 µM | 2.6 µM | 7.55 µM | 1.64 µM | 4.03 µM | 5.02 µM | 44.9 µM | 2.75 µM | > 47.5 µM | 2.39 µM | > 27.3 µM
CSc1nc(NC2OC(COC(C)=O)C(OC(C)=O)C(OC(C)=O)C2OC(C)=O)c(N=CC=Nc2c(NC3OC(COC(C)=O)C(OC(C)=O)C(OC(C)=O)C3OC(C)=O)nc(SC)n(C)c2=O)c(=O)n1C (stereo not drawn) | > 50 µM | > 100 µM |  | > 50 µM and 97.8 µM | > 50 µM | > 100 µM | 12.4 µM | 46.2 µM and 61.5 µM | > 50 µM | > 100 µM | > 50 µM | > 100 µM | > 50 µM | > 100 µM | > 50 µM | > 100 µM | > 50 µM | > 100 µM | > 50 µM | > 100 µM
CN(C)C(=S)Sc1ccc([N+](=O)[O-])cc1[N+](=O)[O-] | 6.9 µM | 17.4 µM | 4.33 µM | 17.5 µM | 0.482 µM | 1.6 µM | 3.83 µM | 8.3 µM | 1.61 µM | 13.9 µM | 2.59 µM | 6.89 µM | 1.53 µM | 3.63 µM | 1.58 µM | 4.79 µM | 1.54 µM | 5.36 µM | 3.27 µM | 12 µM
CCN(Cc1ccc(F)cc1)c1ccc(CO)c(Br)c1 | 5.29 µM | 30.8 µM | 0.0987 µM | 0.231 µM | 13.8 µM | 30.2 µM | 1.4 µM | 16.1 µM | 0.152 µM | 2.68 µM | 16.5 µM | > 53.1 µM | 11.6 µM | 26.1 µM | 1.02 µM | 15.1 µM | 19.4 µM | 49.6 µM | 9.64 µM | 47.1 µM
COC(=O)C1=CN(CC2=CC(=O)C(C)=CC2=O)C=C(C(=O)OC)C1c1cccc(OC)c1 | 12.5 µM | 32.6 µM | 20 µM | 62.2 µM | 8.19 µM | > 31.9 µM | 17.4 µM | 39.8 µM | 25.7 µM | > 100 µM | 16.4 µM | 33.3 µM | 17.6 µM | 42.7 µM | 2.45 µM | 5.61 µM | 5.8 µM | 16.2 µM | > 51.9 µM | > 100 µM
COc1ccc(-c2nsc3c2NC(=O)CC3c2cccc(OC)c2)cc1 (stereo not drawn) | 2.13 µM | > 100 µM | 17.5 µM | > 100 µM | 0.702 µM | 5.28 µM | 2.29 µM | 8.95 µM | 7.4 µM | > 100 µM | 2.59 µM | 19.1 µM | 0.689 µM | > 100 µM | 1.38 µM | > 100 µM | 0.282 µM | 0.868 µM | 3.22 µM | > 100 µM
O=S(=O)(Nc1ccc(Cl)cc1Cl)c1ccc(-c2cnc(C3CC3)o2)cc1 | 1.6 µM | 16.5 µM | 1.37 µM | 31.1 µM | 0.435 µM | 17.3 µM | 0.359 µM | 7.41 µM | 3.72 µM | > 100 µM | 2.6 µM | > 100 µM | 0.542 µM | 34 µM | 0.505 µM | 55.9 µM | 0.182 µM | 0.727 µM | 1.79 µM | > 82.1 µM
COC(=O)c1ccc2c(c1)/C(=C\c1cc(Br)c(O)c(Br)c1)C(=O)N2 | 8.23 µM | > 25 µM | 14.6 µM | > 25 µM | 4.73 µM | 19.3 µM | 6.06 µM | > 21.2 µM | 7.96 µM | > 25 µM | 7.15 µM | > 25 µM | 4.13 µM | > 25 µM | 4.68 µM | > 25 µM | 3.1 µM | > 19.4 µM | 13 µM | > 25 µM
COC12C(COC(N)=O)C3=C(C(=O)C(C)=C(N)C3=O)N1CC1C2N1C (stereo not drawn) |  | 16.7 µM |  | 38.8 µM |  | 25.4 µM |  | 28.7 µM |  | 28.1 µM |  | 15.3 µM |  | 20.2 µM |  | 22 µM |  | 28.1 µM |  | 53.1 µM
COc1cc2c3c(c1OC)-c1cc4c(cc1CC3(C#N)N(C(=O)c1ccccc1)CC2)OCO4 (stereo not drawn) |  | > 100 µM |  | 78.2 µM |  | 81.2 µM |  | 26.9 µM |  | 43 µM |  | > 100 µM |  | > 93.6 µM |  | > 81 µM |  | > 100 µM |  | > 74.2 µM
O=C1CCC/C=C\C[C@H]2C=CC(=O)/C2=C/C[C@H](C/C=C\CC(F)(F)F)O1 | 0.384 µM | 0.733 µM | 0.382 µM | 1.01 µM | 0.257 µM | 0.537 µM | 0.424 µM | 1.4 µM | 0.571 µM | 2.5 µM | 0.607 µM | 2.33 µM | 0.288 µM | 0.591 µM | 0.417 µM | 1.28 µM | 0.449 µM | 1.42 µM | 0.423 µM | 1.34 µM
C=CCc1ccc(O)c(-c2ccc(O)c(CC=C)c2)c1 | 18.4 µM | 36.5 µM | 18.4 µM | 36.9 µM | 10.4 µM | 26.2 µM | 18.9 µM | 47.3 µM | 15.5 µM | 35.8 µM | 15.8 µM | 30.9 µM | 15.7 µM | 34.3 µM | 14.1 µM | 29.4 µM | 14.7 µM | 31.5 µM | 32.8 µM | > 60.9 µM
